What was measured:
actMMP-9 / CI = molecular target: T1, actMMP-9 / CI (Homo sapiens, UniProt P14780); experiment: SPR, competition of actMMP-9 binding to CI, nonactivating buffer; conditions: actMMP-9 (100 nM) binding to CI with 10× (GPO)10; PBS, 0.05% Tween 20
T1 construct: purchased Invitek
Procedure: Sensor chip preparations and SPR measurements were performed using a BiacoreX device and the Bia-evaluation software (version 3.2; Biacore, Uppsala, Sweden). The pepsin-resistant triple-helical part of human fibrillar CI (100 μg/ml) in 10 mM acetate coupling buffer, pH 4.8, was immobilized to a dextran matrix-sensor chip at a flow rate of 5 μl/min, resulting in 5,500 resonance units from CI covalently linked via its primary amino groups. The control flow cell was prepared using the coupling buffer without CI. Surfaces were activated and blocked as described previously. […] The effects of (GPO)10, GAP, (POG)5, (GPP)10 and P33-42 on MMP-2 and MMP-9 binding to CI and their enzymatic activity were determined by adding the binding competitors to the (pro- and act)MMP-2 and MMP-9 solution in 10- to 150-fold molar excesses. Effects independent of MMP-2 and MMP-9 activity were monitored in the presence of Ro 28-2653 (1 μM) during SPR analysis. […] Kinetic parameters were analyzed using the 1:1 binding model with drifting baseline and subtraction of the control flow cell binding from sensorgrams obtained with immobilized CI. Binding constants (Kd) were calculated from the association (ka) and dissociation rates (kd) obtained from individual binding curves at different concentrations. […]

[1] = system: Cy2-proMMP-2 bound to cirrhotic human liver tissue; experiment: Release / prevention of binding of Cy2-proMMP-2 in cirrhotic liver sections; conditions: 10-fold molar excess, fluorescence microscopy
Procedure: ProMMP-2 was labeled using the FluoroLink Cy2 Labeling Kit according to the manufacturer's instructions (Amersham Biosciences, Freiburg, Germany). Unbound fluorescent dye was removed by ultrafiltration (Nanosep, Lund, Sweden), and labeling success was monitored using a fluorescence microplate reader (λex/em, 489/506 nm). Serial cirrhotic human liver sections were covered with 1.2 μg/ml Cy2-proMMP-2 in 50 mM Tris·HCl, pH 7.4, containing 1 mM CaCl2 or with buffer alone, and were incubated in a dark humidified chamber for 24 h at 4°C. To study effects of (GPO)10, a 10-fold molar excess in relation to proMMP-2 was added to slides prior to or after Cy2-proMMP-2 binding. Slides were washed with PBS, air-dried, and rinsed with deionized water. Bound Cy2-proMMP-2 was detected by fluorescence microscopy (Olympus, Hamburg, Germany).

T1 sequence (P14780 107-707 limits assumed): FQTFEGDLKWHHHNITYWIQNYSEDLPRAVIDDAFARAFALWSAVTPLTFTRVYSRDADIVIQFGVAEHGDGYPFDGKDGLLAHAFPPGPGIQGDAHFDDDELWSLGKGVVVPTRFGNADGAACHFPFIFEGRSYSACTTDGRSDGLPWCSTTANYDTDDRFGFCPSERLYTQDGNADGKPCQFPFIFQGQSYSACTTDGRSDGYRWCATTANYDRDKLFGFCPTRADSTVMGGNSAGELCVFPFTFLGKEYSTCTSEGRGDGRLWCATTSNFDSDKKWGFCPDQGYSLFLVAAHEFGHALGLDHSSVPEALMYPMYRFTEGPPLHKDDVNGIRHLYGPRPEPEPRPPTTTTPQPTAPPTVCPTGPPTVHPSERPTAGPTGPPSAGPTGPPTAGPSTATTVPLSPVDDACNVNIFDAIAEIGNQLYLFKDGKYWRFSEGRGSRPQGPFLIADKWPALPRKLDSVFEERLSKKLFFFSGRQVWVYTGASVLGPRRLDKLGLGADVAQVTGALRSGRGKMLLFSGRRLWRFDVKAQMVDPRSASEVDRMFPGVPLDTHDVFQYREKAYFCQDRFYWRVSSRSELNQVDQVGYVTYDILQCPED

Off rate (actMMP-9 / CI): 0.61 s⁻¹
prevention of binding of Cy2-proMMP-2 ([1]; coincubation): prevented gelatinase binding
Substance: H-Gly-Cys-Hyp-(Gly-Pro-Hyp)10-Gly-Cys-Hyp-Gly-NH2 [(GPO)10, triple-helical Hyp-containing collagen analog]
release of bound Cy2-proMMP-2 ([1]; subsequent treatment): promoted effective release of the sequestered enzyme
